According to patent US11369565B2, “Amino-pyrimidine skeletal muscle modulators” (Cytokinetics, Inc., priority 2010, dated 2022):

test system: rabbit skeletal myofibrils (approximately 90% fast fibers); test: Activation of fast skeletal myofibrils (PUMA coupled-enzyme ATPase assay at pCa25); assay type: biochemical; details: concentration at which the compound increased the enzymatic activity by 40%; calcium at pCa25; PM12 buffer pH 6.8
In short: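 Detergent-washed rabbit psoas myofibrils tested at calcium giving 25% of maximal rate (pCa25). ATPase activity tracked by pyruvate kinase/lactate dehydrogenase coupling, NADH oxidation read as absorbance at 340 nm, in PM12 buffer (12 mM Pipes, 2 mM MgCl2, 1 mM DTT, pH 6.8).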

SMILES	Mean AC1.4
NC(=O)c1n[nH]c2cc(F)c(-c3cnc(NC4(c5ncccc5F)CCC4)nc3)cc12 [6-fluoro-5-(2-{[(3-fluoro(2-pyridyl))cyclobutyl]amino}pyrimidin-5-yl)-1H-indazole-3-carboxamide]	A (A=<1 uM)
O=C1Cc2cccc(-c3cnc(NC[C@]4(c5ncccc5F)C[C@H](F)C4)nc3)c2N1 [7-[2-({[3-fluoro-1-(3-fluoro(2-pyridyl))cyclobutyl)]methyl}amino) pyrimidin-5-yl]indolin-2-one]	B (B=1-10 uM)
O=C1NCc2cccc(-c3cnc(NC[C@]4(c5ncccc5F)C[C@H](F)C4)nc3)c21 [7-[2-({[3-fluoro-1-(3-fluoro(2-pyridyl))cyclobutyl]methyl}amino)pyrimidin-5-yl]isoindolin-1-one]	B (B=1-10 uM)
Nc1nc(NC[C@]2(c3ncccc3F)C[C@H](F)C2)ncc1-c1ccccc1 [(4-amino-5-phenylpyrimidin-2-yl){[3-fluoro-1-(3-fluoro(2-pyridyl))cyclobutyl)]methyl} amine]	B (B=1-10 uM)
CC(C)(Nc1ncc(-c2ccc3[nH]ncc3c2)cn1)c1ncccc1Cl [(5-(1H-indazol-5-yl)]pyrimidin-2-yl)[1-(3-chloro(2-pyridyl))-isopropyl]amine]	A (A=<1 uM)
Fc1cccnc1C1(Nc2ncc(-c3ccc4[nH]ncc4c3)cn2)CCC1 [(5-(1H-indazol-5-yl)pyrimidin-2-yl)[(3-fluoro(2-pyridyl))cyclobutyl]amine]	B (B=1-10 uM)
CC(C)(Nc1ncc(C2N=NN=N2)cn1)c1ncccc1Cl [(5-(5H-1,2,3,4-tetraazol-5-yl)pyrimidin-2-yl)[1-(3-chloro(2-pyridyl))-isopropyl]amine]	D (D=>20 uM)
CC(C)(Nc1ncc(Br)cn1)c1ncccc1F [(5-bromopyrimidin-2-yl)[1-(3-fluoro(2-pyridyl))-isopropyl]amine]	D (D=>20 uM)
CC(C)(Nc1ncc(Br)cn1)c1ccc(F)cc1 [(5-bromopyrimidin-2-yl)[1-(4-fluorophenyl)-isopropyl]amine]	C (C=10-20 uM)
Fc1cccnc1C1(Nc2ncc(Br)cn2)CCC1 [(5-bromopyrimidin-2-yl)[(3-fluoro(2-pyridyl))cyclobutyl]amine]	D (D=>20 uM)
Fc1ccc(C2(Nc3ncc(Br)cn3)CCC2)cc1 [(5-bromopyrimidin-2-yl)[(4-fluorophenyl)cyclobutyl]amine]	D (D=>20 uM)
Fc1cccnc1C1(Nc2ncc3cc(Br)ccc3n2)CCC1 [(6-bromoquinazolin-2-yl)[(3-fluoro(2-pyridyl))cyclobutyl]amine]	D (D=>20 uM)
Cc1cc(NC2CCCCC2)nc(N[C@H](C)c2ccccc2)n1 [((1R)-1-phenylethyl)[4-(cyclohexylamino)-6-methylpyrimidin-2-yl]amine]	B (B=1-10 uM)
CC(C)(Nc1ncc(-c2ncc(CNC(=O)[C@H]3CCCN3)s2)cn1)c1ncccc1F [((2R)pyrrolidin1-2-yl)-N-{[2-(2-{[1-(3-fluoro(2-pyridyl))-isopropyl]amino}pyrimidin-5-yl)(1,3-thiazol-5-yl)]methyl}carboxamide]	D (D=>20 uM)
CC(C)(Nc1ncc(-c2nc(CNC(=O)[C@H]3CCCN3)cs2)cn1)c1ncccc1F [((2R)pyrrolidin-2-yl)-N-{[2-(2-{[1-(3-fluoro(2-pyridyl))-isopropyl]amino}pyrimidin-5-yl)(1,3-thiazo-4-yl)]methyl}carboxamide]	D (D=>20 uM)
CC(C)(Nc1ncc(-c2nc(CNC(=O)[C@@H]3CCCN3)cs2)cn1)c1ncccc1F [((2S)pyrrolidin-2-yl)-N-{[2-(2-{[1-(3-fluoro(2-pyridyl))-isopropyl]amino}pyrimidin-5-yl)(1,3-thiazol-4-yl)]methyl}carboxamide]	D (D=>20 uM)
CC(C)(Nc1ncc(-c2ncc(CNC(=O)[C@@H]3CCCN3)s2)cn1)c1ncccc1F [((2S)pyrrolidin-2-yl)-N-{[2-(2-{[1-(3-fluoro(2-pyridyl))-isopropyl]amino}pyrimidin-5-yl)(1,3-thiazol-5-yl)]methyl}carboxamide]	C (C=10-20 uM)
CC(C)(Nc1ncc(-c2ncc(CNC(=O)C3(N)CC3)s2)cn1)c1ncccc1F [(aminocyclopropyl)-N-{[2-(2-{[1-(3-fluoro(2-pyridyl))-isopropyl]amino}pyrimidin-5-yl)(1,3-thiazol-5-yl)]methyl)carboxamide]	D (D=>20 uM)
CC(C)(C)OC(=O)NCc1cnc(-c2cnc(NCC3(c4ncccc4Cl)CCC3)nc2)s1 [(tert-butoxy)-N-({2-[2-({[(3-chloro(2-pyridyl))cyclobutyl]methyl}amino)pyrimidin-5-yl](1,3-thiazol-5-yl)}methyl)carboxamide]	A (A=<1 uM)
CC(C)(C)OC(=O)NCc1cnc(-c2cnc(NCC3(c4ncccc4F)CCC3)nc2)s1 [(tert-butoxy)-N-({2-[2-({[(3-fluoro(2-pyridyl))cyclobutyl]methyl}amino)pyrimidin-5-yl](1,3-thiazol-5-yl)}methyl)carboxamide]	B (B=1-10 uM)
CC(C)(C)OC(=O)NCc1cnc(-c2cnc(NCC3(c4ccccn4)CCC3)nc2)s1 [(tert-butoxy)-N-{[2-(2-{[(2-pyridylcyclobutyl)methyl]amino}pyrimidin-5-yl)(1,3-thiazol-5-yl)]methyl}carboxamide]	B (B=1-10 uM)
CS(=O)(=O)NCc1cnc(-c2cnc(NCC3(c4ncccc4F)CCC3)nc2)s1 [({2-[2-({[(3-fluoro(2-pyridyl))cyclobutyl]methyl}amino)pyrimidin-5-yl](1,3-thiazol-5-yl)}methyl)(methylsulfonyl)amine]	B (B=1-10 uM)
CC(=O)N1CC(NC(=O)c2ccc(F)c(-c3cnc(NC[C@]4(c5ncccc5F)C[C@H](F)C4)nc3)c2)C1 [N-(1-acetylazetidin-3-yl) {4-fluoro-3-[2-({[3-fluoro-1-(3-fluoro(2-pyridyl))cyclobutyl]methyl}aminopyrimidin-5-yl]phenyl}carboxamide]	B (B=1-10 uM)
CC(=O)N1CC(NC(=O)c2cccc(-c3cnc(NC[C@]4(c5ncccc5F)C[C@H](F)C4)nc3)c2)C1 [N-(1-acetylazetidin-3-yl){3-[2-({[3-fluoro-1-(3-fluoro(2-pyridyl))cyclobutyl]methyl}amino)pyrimidin-5-yl]phenyl}carboxamide]	B (B=1-10 uM)
CC(C)(Nc1ncc(-n2cc(C(=O)NCCC(N)=O)cn2)cn1)c1ncccc1Cl [N-(2-carbamoylethyl)[1-(2-{[1-(3-chloro)(2-pyridyl))-isopropyl]amino}pyrimidin-5-yl)pyrazol-4-yl]carboxamide]	D (D=>20 uM)
CC(=O)NCCNC(=O)c1cnc(NCC2(c3ncccc3F)CCC2)nc1 [N-(2-{[2-({[(3-fluoro-2-pyridyl)cyclobutyl]methyl}amino)pyrimidin-5-yl]carbonylamino}ethyl)acetamide]	D (D=>20 uM)
CC(C)(C)NC(=O)c1cc(-c2cnc(NC(C)(C)c3ncccc3Cl)nc2)cnn1 [N-(tert-butyl)[5-(2-{[1-(3-chloro(2-pyridyl))-isapropyl]amino}pyrimidin-5-yl)pyridazin-3-yl]carboxamide]	D (D=>20 uM)
CC(=O)NCc1cnc(-c2cnc(NCC3(c4ncccc4Cl)CCC3)nc2)s1 [N-({2-[2-({[(3-chloro-2-pyridyl)cyclobutyl]methyl}amino)pyrimidin-5-yl]-1,3-thiazol-5-yl}methyl)acetamide]	A (A=<1 uM)
